According to patent US8802700B2 (Vertex Pharmaceuticals Incorporated, priority 2010, dated 2014):

biological target: T1, ΔF508-CFTR (Homo sapiens, UniProt P13569, DEL508-508); assay: Membrane potential optical assay (FRET voltage-sensor dyes, VIPR), identification of potentiator compounds; assay type: cell-based; conditions: Table 3; assay not given
T1 construct: expressed in transfected cells
How it was run: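 Potentiator screen measured membrane potential via FRET between CC2-DMPE donor and DiSBAC2(3), read on VIPR II. Compound went in with the first addition of chloride-free gluconate bath; cells were ΔF508-CFTR-expressing NIH3T3 mouse fibroblasts, temperature-corrected at 27 °C for 24 h.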

T1 sequence (P13569 with tags, fused parts or gaps DEL508-508): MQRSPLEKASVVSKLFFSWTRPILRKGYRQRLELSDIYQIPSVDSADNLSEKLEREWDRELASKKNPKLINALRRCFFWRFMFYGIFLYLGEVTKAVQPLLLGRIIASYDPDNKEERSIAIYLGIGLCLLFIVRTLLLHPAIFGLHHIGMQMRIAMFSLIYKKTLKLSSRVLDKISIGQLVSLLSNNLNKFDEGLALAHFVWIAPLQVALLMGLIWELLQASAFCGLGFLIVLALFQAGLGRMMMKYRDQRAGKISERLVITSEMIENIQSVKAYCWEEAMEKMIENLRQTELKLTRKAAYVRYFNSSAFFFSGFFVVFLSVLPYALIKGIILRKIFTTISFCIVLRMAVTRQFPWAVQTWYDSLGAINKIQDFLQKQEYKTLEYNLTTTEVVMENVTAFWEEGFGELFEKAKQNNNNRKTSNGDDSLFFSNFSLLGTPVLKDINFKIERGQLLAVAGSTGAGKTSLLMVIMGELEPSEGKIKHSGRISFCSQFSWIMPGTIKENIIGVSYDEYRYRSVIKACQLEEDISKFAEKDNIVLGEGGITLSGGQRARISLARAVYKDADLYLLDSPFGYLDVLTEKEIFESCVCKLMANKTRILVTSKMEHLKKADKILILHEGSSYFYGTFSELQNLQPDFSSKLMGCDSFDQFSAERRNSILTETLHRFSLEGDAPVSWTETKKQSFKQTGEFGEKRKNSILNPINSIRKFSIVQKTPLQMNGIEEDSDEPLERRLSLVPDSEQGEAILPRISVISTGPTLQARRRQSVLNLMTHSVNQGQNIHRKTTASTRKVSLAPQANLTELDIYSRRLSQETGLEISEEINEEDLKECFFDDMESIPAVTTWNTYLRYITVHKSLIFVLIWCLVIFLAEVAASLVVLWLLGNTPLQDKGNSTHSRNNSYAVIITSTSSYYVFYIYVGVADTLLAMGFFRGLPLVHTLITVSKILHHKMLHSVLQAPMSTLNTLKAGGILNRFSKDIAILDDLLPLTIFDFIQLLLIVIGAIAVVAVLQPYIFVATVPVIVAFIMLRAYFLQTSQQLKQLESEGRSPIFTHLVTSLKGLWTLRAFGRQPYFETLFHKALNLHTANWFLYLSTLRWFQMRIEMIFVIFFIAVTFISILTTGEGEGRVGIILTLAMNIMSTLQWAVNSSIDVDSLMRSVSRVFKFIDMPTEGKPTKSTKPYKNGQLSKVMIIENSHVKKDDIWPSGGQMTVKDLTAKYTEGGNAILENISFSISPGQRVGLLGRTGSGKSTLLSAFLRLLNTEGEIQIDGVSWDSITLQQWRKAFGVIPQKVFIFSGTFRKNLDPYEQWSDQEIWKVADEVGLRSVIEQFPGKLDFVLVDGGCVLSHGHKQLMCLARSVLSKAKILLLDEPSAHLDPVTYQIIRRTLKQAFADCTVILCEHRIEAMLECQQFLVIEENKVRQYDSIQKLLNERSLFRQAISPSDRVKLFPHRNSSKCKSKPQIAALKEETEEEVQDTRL

Compound | EC50
O=C(Nc1ccccc1-c1ccncc1)c1c[nH]c2ccccc2c1=O [Compound 70, 4-oxo-N-[2-(4-pyridyl)phenyl]-1H-quinoline-3-carboxamide] | 10 to 25 µM
CCCc1ccc(NC(=O)c2c[nH]c3ccccc3c2=O)cc1 [Compound 226, 4-oxo-N-(4-propylphenyl)-1H-quinoline-3-carboxamide] | < 10 µM
O=C(Nc1cccnc1Oc1ccc(F)cc1F)c1c[nH]c2ccccc2c1=O [Compound 385, N-[2-(2,4-difluorophenoxy)-3-pyridyl]-4-oxo-1H-quinoline-3-carboxamide] | < 10 µM
O=C(Nc1ccc(N2CCCC2)cc1)c1c[nH]c2ccccc2c1=O [Compound 674, 4-oxo-N-(4-pyrrolidin-1-ylphenyl)-1H-quinoline-3-carboxamide] | < 10 µM

The next lines start with the values.

EC50 | Compound
10 to 25 µM | CC(=O)Nc1ccc(C(C)C)c(NC(=O)c2c[nH]c3ccccc3c2=O)c1 [Compound 243, N-(5-acetylamino-2-isopropyl-phenyl)-4-oxo-1H-quinoline-3-carboxamide]
< 10 µM | CCOC(=O)Nc1cc(NC(=O)c2c[nH]c3ccccc3c2=O)ccc1CC [Compound 298, [2-ethyl-5-[(4-oxo-1H-quinolin-3-yl)carbonylamino]phenyl]aminoformic acid ethyl ester]

same assay, conditions: Table 3; assay not given; read-out: % Activity (% Efficacy, relative efficacy)

Compound | Emax
C[C@H]1CCCCN1c1ccc(NC(=O)c2c[nH]c3ccccc3c2=O)c(C(F)(F)F)c1 [Compound 713, (S)-N-(4-(2-methylpiperidin-1-yl)-2-(trifluoromethyl)phenyl)-4-oxo-1,4-dihydroquinoline-3-carboxamide] | > 100%
CC(C)(C)c1cc2cc[nH]c2cc1NC(=O)c1c[nH]c2ccc(S(=O)(=O)N3CCCC3)cc2c1=O [Compound 274, 4-oxo-6-pyrrolidin-1-ylsulfonyl-N-(5-tert-butyl-1H-indol-6-yl)-1H-quinoline-3-carboxamide] | 25 to 100%
O=C(Nc1ccccc1)c1c[nH]c2ccccc2c1=O [Compound 215, 4-Oxo-N-phenyl-1H-quinoline-3-carboxamide] | 25 to 100%
N#CCc1ccccc1NC(=O)c1c[nH]c2ccccc2c1=O [Compound 308, N-[2-(cyanomethyl)phenyl]-4-oxo-1H-quinoline-3-carboxamide] | 25 to 100%
O=C(Nc1ccccc1-c1ccncc1)c1c[nH]c2ccccc2c1=O [Compound 70, 4-oxo-N-[2-(4-pyridyl)phenyl]-1H-quinoline-3-carboxamide] | 25 to 100%
CC(=O)N1CCC2(CCN(C(=O)OC(C)(C)C)CC2)c2ccc(NC(=O)c3c[nH]c4ccccc4c3=O)cc21 [Compound 334, 7′-[(4-oxo-1H-quinolin-3-ylcarbonyl)amino]-spiro[piperidine-4,4′(1′H)-1-acetyl-quinoline], 2′,3′-dihydro-carboxylic acid tert-butyl ester] | 25 to 100%
CCCc1ccc(NC(=O)c2c[nH]c3ccccc3c2=O)cc1 [Compound 226, 4-oxo-N-(4-propylphenyl)-1H-quinoline-3-carboxamide] | 25 to 100%
O=C(Nc1ccccc1-c1ccccc1)c1c[nH]c2cc(C(F)(F)F)ccc2c1=O [Compound 469, 4-oxo-N-(2-phenylphenyl)-7-(trifluoromethyl)-1H-quinoline-3-carboxamide] | 25 to 100%
O=C(Nc1cccnc1)c1c[nH]c2ccccc2c1=O [Compound 168, 4-oxo-N-(3-pyridyl)-1H-quinoline-3-carboxamide] | < 25%
O=C(Nc1cccnc1Oc1ccc(F)cc1F)c1c[nH]c2ccccc2c1=O [Compound 385, N-[2-(2,4-difluorophenoxy)-3-pyridyl]-4-oxo-1H-quinoline-3-carboxamide] | 25 to 100%
O=C(Nc1ccc2nccnc2c1)c1c[nH]c2ccccc2c1=O [Compound 443, 4-oxo-N-quinoxalin-6-yl-1H-quinoline-3-carboxamide] | < 25%
O=C(Nc1ccc(N2CCCCC2)cc1C(F)(F)F)c1c[nH]c2ccccc2c1=O [Compound 686, 4-oxo-N-[4-(1-piperidyl)-2-(trifluoromethyl)phenyl]-1H-quinoline-3-carboxamide] | 25 to 100%
CCCCc1ccc(NC(=O)c2c[nH]c3ccccc3c2=O)cc1 [Compound 324, N-(4-butylphenyl)-4-oxo-1H-quinoline-3-carboxamide] | 25 to 100%
Cc1cccc(NC(=O)c2c[nH]c3ccccc3c2=O)c1C#N [Compound 201, N-(2-cyano-3-methyl-phenyl)-4-oxo-1H-quinoline-3-carboxamide] | < 25%
O=C(Nc1ccccc1-c1cc2ccccc2[nH]1)c1c[nH]c2ccccc2c1=O [Compound 38, N-[2-(1H-indol-2-yl)phenyl]-4-oxo-1H-quinoline-3-carboxamide] | 25 to 100%
CN(C)[C@H]1CCN(c2ccc(NC(=O)c3c[nH]c4ccccc4c3=O)c(C(F)(F)F)c2)C1 [Compound 513, (S)-N-(4-(3-(dimethylamino)pyrrolidin-1-yl)-2-(trifluoromethyl)phenyl)-4-oxo-1,4-dihydroquinoline-3-carboxamide] | 25 to 100%
O=C(Nc1ccc2ccn(Cc3ccccc3)c2c1)c1c[nH]c2ccccc2c1=O [Compound 203, N-(1-benzyl-1H-indol-6-yl)-4-oxo-1H-quinoline-3-carboxamide] | 25 to 100%
COc1ccc2[nH]cc(C(=O)Nc3ccc(N4CCC(C)(C)C4)cc3C(F)(F)F)c(=O)c2c1 [Compound 504, N-[4-(3,3-dimethylpyrrolidin-1-yl)-2-(trifluoromethyl)phenyl]-6-methoxy-4-oxo-1H-quinoline-3-carboxamide] | 25 to 100%
CCc1cc(Br)ccc1NC(=O)c1c[nH]c2ccccc2c1=O [Compound 263, N-(4-bromo-2-ethyl-phenyl)-4-oxo-1H-quinoline-3-carboxamide] | 25 to 100%
CC(C)c1ccc(NC(=O)c2c[nH]c3cc(F)c(F)cc3c2=O)c(C(F)(F)F)c1 [Compound 589, 6,7-difluoro-N-[4-isopropyl-2-(trifluoromethyl)phenyl]-4-oxo-1H-quinoline-3-carboxamide] | 25 to 100%
CCOc1ccccc1-c1ccc(NC(=O)OC(C)(C)C)cc1NC(=O)c1c[nH]c2ccccc2c1=O [Compound 114, [4-(2-ethoxyphenyl)-3-[(4-oxo-1H-quinolin-3-yl)carbonylamino]phenyl]aminoformic acid tert-butyl ester] | 25 to 100%
COc1ccc(NC(=O)c2c[nH]c3ccccc3c2=O)c(OC)n1 [Compound 193, N-(2,6-dimethoxy-3-pyridyl)-4-oxo-1H-quinoline-3-carboxamide] | 25 to 100%
O=C(Nc1ccc(N2CCCC2)cc1)c1c[nH]c2ccccc2c1=O [Compound 674, 4-oxo-N-(4-pyrrolidin-1-ylphenyl)-1H-quinoline-3-carboxamide] | 25 to 100%

Now from value to compound:

Emax | Compound
25 to 100% | COC(=O)c1cccc(-c2cc(C(C)(C)C)c(O)cc2NC(=O)c2c[nH]c3ccccc3c2=O)c1 [Compound 231, 3-[4-hydroxy-2-[(4-oxo-1H-quinolin-3-yl)carbonylamino]-5-tert-butyl-phenyl]benzoic acid methyl ester]
25 to 100% | CNc1cc(NC(=O)c2c[nH]c3ccccc3c2=O)ccc1C(C)(C)C [Compound 484, N-(3-methylamino-4-tert-butyl-phenyl)-4-oxo-1H-quinoline-3-carboxamide]
25 to 100% | CC(C)(C)c1cc(Cl)c(O)cc1NC(=O)c1c[nH]c2ccccc2c1=O [Compound 426, N-(4-chloro-5-hydroxy-2-tert-butyl-phenyl)-4-oxo-1H-quinoline-3-carboxamide]
> 100% | CC(C)(C)OC(=O)NC1CCCc2ccc(NC(=O)c3c[nH]c4ccccc4c3=O)cc21 (centres unmarked) [Compound 273, [7-[(4-oxo-1H-quinolin-3-yl)carbonylamino]tetralin-1-yl]aminoformic acid tert-butyl ester]
25 to 100% | CC(=O)Nc1ccc(C(C)C)c(NC(=O)c2c[nH]c3ccccc3c2=O)c1 [Compound 243, N-(5-acetylamino-2-isopropyl-phenyl)-4-oxo-1H-quinoline-3-carboxamide]
25 to 100% | CN1CCC(C)(C)c2ccc(NC(=O)c3c[nH]c4ccccc4c3=O)cc21 [Compound 710, 4-oxo-N-(1,4,4-trimethyl-2,3-dihydroquinolin-7-yl)-1H-quinoline-3-carboxamide]
25 to 100% | CC(C)(C)c1ccc(NC(=O)c2c[nH]c3cccc(O)c3c2=O)cc1F [Compound 491, N-(3-fluoro-4-tert-butyl-phenyl)-5-hydroxy-4-oxo-1H-quinoline-3-carboxamide]
25 to 100% | CCCc1ccc(NC(=O)c2c[nH]c3ccccc3c2=O)cc1NC(=O)OC [Compound 221, [5-[(4-oxo-1H-quinolin-3-yl)carbonylamino]-2-propyl-phenyl]aminoformic acid methyl ester]
25 to 100% | CCOC(=O)Nc1cc(NC(=O)c2c[nH]c3ccccc3c2=O)ccc1CC [Compound 298, [2-ethyl-5-[(4-oxo-1H-quinolin-3-yl)carbonylamino]phenyl]aminoformic acid ethyl ester]
< 25% | Cn1c(=O)oc2ccc(NC(=O)c3c[nH]c4ccccc4c3=O)cc21 [Compound 474, N-(3-methyl-2-oxo-3H-benzooxazol-5-yl)-4-oxo-1H-quinoline-3-carboxamide]
25 to 100% | CC(C)c1ccc(NC(=O)c2c[nH]c3ccccc3c2=O)c(C(F)(F)F)c1 [Compound 47, N-[4-isopropyl-2-(trifluoromethyl)phenyl]-4-oxo-1H-quinoline-3-carboxamide]
25 to 100% | O=C(Nc1ccc2c(c1)C(O)CCC2)c1c[nH]c2ccccc2c1=O (centres unmarked) [Compound 200, 1,4-dihydro-N-(1,2,3,4-tetrahydro-1-hydroxynaphthalen-7-yl)-4-oxoquinoline-3-carboxamide]
25 to 100% | CCC(C)c1c[nH]c2cc(NC(=O)c3c[nH]c4ccccc4c3=O)ccc12 (centres unmarked) [Compound 259, 4-oxo-N-(3-sec-butyl-1H-indol-6-yl)-1H-quinoline-3-carboxamide]
25 to 100% | CC(C)(C)c1cc2cc[nH]c2cc1NC(=O)c1c[nH]c2cc(F)c(F)cc2c1=O [Compound 646, 6,7-difluoro-4-oxo-N-(5-tert-butyl-1H-indol-6-yl)-1H-quinoline-3-carboxamide]
25 to 100% | COc1ccc2[nH]cc(C(=O)Nc3cc(O)c(C(C)(C)C)cc3C(C)(C)C)c(=O)c2c1 [Compound 496, N-(5-hydroxy-2,4-ditert-butyl-phenyl)-6-methoxy-4-oxo-1H-quinoline-3-carboxamide]
25 to 100% | CC(C)c1ccc(NC(=O)c2c[nH]c3ccc(F)cc3c2=O)c(C(F)(F)F)c1 [Compound 557, 6-fluoro-N-[4-isopropyl-2-(trifluoromethyl)phenyl]-4-oxo-1H-quinoline-3-carboxamide]
25 to 100% | CC(C)c1ccc(NC(=O)c2c[nH]c3ccccc3c2=O)cc1N [Compound 69, N-(3-amino-4-isopropyl-phenyl)-4-oxo-1H-quinoline-3-carboxamide]
25 to 100% | O=C(Nc1ccc2cc[nH]c2c1)c1c[nH]c2cccc(O)c2c1=O [Compound 116, 5-hydroxy-N-(1H-indol-6-yl)-4-oxo-1H-quinoline-3-carboxamide]
